For eight cell lines, relative viability results are on record in the supplement of paper PMC10307832.

What all share (assay): relative viability (nuclei count vs DMSO), 5 days (fraction); higher = more cells survive
Compound in experiment [1]: C1CSC2=C(C(=O)N1)SC3=C2C=C(C=C3)O [kb NB 142-70] + CCNC(=O)c1noc(-c2cc(C(C)C)c(O)cc2O)c1-c1ccc(CN2CCOCC2)cc1 [Luminespib] (partner 0.01 µM)
Summed up:
(§1)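 Lung cancer cell lines, seeded in 1536-well plates, were treated the following day by pin tool with a single drug or with five library-drug doses (not always all listed) in √10 steps on top of a fixed anchor-drug dose. Cells were fixed and nuclei stained in one step after 5 days, and nuclei were counted. Relative viability is the nuclei count for treated wells divided by that for vehicle wells, reported as medians of duplicate plates.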

Compound in experiment [2]: NCC(=O)Nc1ccc(-n2nc(C(F)(F)F)cc2-c2ccc3c(ccc4ccccc43)c2)cc1 + Cc1cc(Nc2cc(N3CCN(C)CC3)nc(Sc3ccc(NC(=O)C4CC4)cc3)n2)n[nH]1 [Tozasertib] (partner 0.1 µM)
Summed up:
as §1

Compound in experiment [3]: C1CSC2=C(C(=O)N1)SC3=C2C=C(C=C3)O [kb NB 142-70] + CS(=O)(=O)N1CCN(Cc2cc3nc(-c4cccc5[nH]ncc45)nc(N4CCOCC4)c3s2)CC1 [Pictilisib] (partner 1 µM)
Summed up:
as §1

Compound in experiment [4]: C1CSC2=C(C(=O)N1)SC3=C2C=C(C=C3)O [kb NB 142-70] + COc1cc2c(Oc3ccc(NC(=O)C4(C(=O)Nc5ccc(F)cc5)CC4)cc3F)ccnc2cc1OCCCN1CCOCC1 [Foretinib] (partner 0.25 µM)
The method in brief: as §1

Compound in experiment [5]: NCC(=O)Nc1ccc(-n2nc(C(F)(F)F)cc2-c2ccc3c(ccc4ccccc43)c2)cc1 + C[C@]1(O)C[C@@H](c2nc(-c3ccc4ccc(-c5ccccc5)nc4c3)c3c(N)nccn32)C1 [Linsitinib] (partner 1 µM)
The method in brief:
as §1

Regarding LXF-289, the relative viability came to 0.78 in experiment [1] (first compound 0.1 µM); 0.621 in experiment [1] (first compound 1 µM); 0.49 in experiment [1] (first compound 3.162 µM); 0.233 in experiment [2] (first compound 0.02 µM); 0.196 in experiment [2] (first compound 0.06325 µM); 0.202 in experiment [2] (first compound 0.2 µM). Besides, the relative viability in experiment [2] (first compound 0.6325 µM) turned out to be 0.214; in experiment [2] (first compound 2 µM), 0.197; in experiment [3] (first compound 0.1 µM), 0.739; in experiment [3] (first compound 1 µM), 0.737; in experiment [3] (first compound 3.162 µM), 0.749; in experiment [4] (first compound 0.1 µM), 0.973. Besides, the relative viability in experiment [4] (first compound 1 µM) is 1.01; in experiment [4] (first compound 3.162 µM) it was 0.813; in experiment [5] (first compound 0.02 µM), 0.924; in experiment [5] (first compound 0.06325 µM) it was 0.995; in experiment [5] (first compound 0.2 µM), 0.989; in experiment [5] (first compound 0.6325 µM), 0.985. Moreover, the relative viability in experiment [5] (first compound 2 µM) stood at 0.901.

ABC-1: the relative viability in experiment [1] (first compound 0.1 µM) was 0.536; in experiment [1] (first compound 1 µM), 0.487; in experiment [1] (first compound 3.162 µM) it was 0.336; in experiment [2] (first compound 0.02 µM), 0.183; in experiment [2] (first compound 0.06325 µM) it was 0.199; in experiment [2] (first compound 0.6325 µM), 0.134. For the same cell line, the relative viability in experiment [2] (first compound 2 µM) stood at 0.187; in experiment [3] (first compound 0.1 µM) it was 0.757; in experiment [3] (first compound 1 µM), 0.879; in experiment [3] (first compound 3.162 µM), 0.381; in experiment [4] (first compound 0.1 µM), 1.11; in experiment [4] (first compound 1 µM), 0.979. The relative viability came out at 0.677 in experiment [4] (first compound 3.162 µM); 0.731 in experiment [5] (first compound 0.02 µM); 0.917 in experiment [5] (first compound 0.06325 µM); 0.915 in experiment [5] (first compound 0.6325 µM); 0.855 in experiment [5] (first compound 2 µM).

As to NCI-H650, the relative viability was 0.76 in experiment [1] (first compound 0.1 µM); 0.777 in experiment [1] (first compound 1 µM); 0.499 in experiment [1] (first compound 3.162 µM); 0.691 in experiment [2] (first compound 0.02 µM); 0.754 in experiment [2] (first compound 0.06325 µM); 0.761 in experiment [2] (first compound 0.2 µM). Besides, the relative viability was 0.676 in experiment [2] (first compound 0.6325 µM); 0.631 in experiment [2] (first compound 2 µM); 1.05 in experiment [3] (first compound 0.1 µM); 0.94 in experiment [3] (first compound 1 µM); 0.756 in experiment [3] (first compound 3.162 µM); 1.02 in experiment [4] (first compound 0.1 µM). Further, the relative viability in experiment [4] (first compound 1 µM) was 1.06; in experiment [4] (first compound 3.162 µM) it was 0.851; in experiment [5] (first compound 0.02 µM), 0.638; in experiment [5] (first compound 0.06325 µM), 1.01; in experiment [5] (first compound 0.2 µM), 1.02; in experiment [5] (first compound 0.6325 µM), 0.862. Further, the relative viability in experiment [5] (first compound 2 µM) stood at 1.08.

For the cell line NCI-H2085, the relative viability in experiment [1] (first compound 0.1 µM) was determined as 0.383; in experiment [1] (first compound 1 µM), 0.358; in experiment [1] (first compound 3.162 µM), 0.339; in experiment [2] (first compound 0.02 µM), 0.697; in experiment [2] (first compound 0.06325 µM) it was 0.853; in experiment [2] (first compound 0.2 µM), 0.836. Besides, the relative viability in experiment [2] (first compound 0.6325 µM) turned out to be 0.878; in experiment [2] (first compound 2 µM) it was 0.807; in experiment [3] (first compound 0.1 µM), 0.486; in experiment [3] (first compound 1 µM), 0.53; in experiment [3] (first compound 3.162 µM), 0.398; in experiment [4] (first compound 0.1 µM), 0.964. Also, the relative viability in experiment [4] (first compound 1 µM) was 1.06; in experiment [4] (first compound 3.162 µM) it was 0.513; in experiment [5] (first compound 0.02 µM), 0.964; in experiment [5] (first compound 0.06325 µM), 0.943; in experiment [5] (first compound 0.2 µM) it was 1.03; in experiment [5] (first compound 0.6325 µM), 1.03. Moreover, the relative viability in experiment [5] (first compound 2 µM) was found to be 0.932.

In the case of NCI-H1793, the relative viability in experiment [1] (first compound 0.1 µM) amounted to 0.188; in experiment [1] (first compound 1 µM), 0.179; in experiment [1] (first compound 3.162 µM), 0.153; in experiment [2] (first compound 0.02 µM) it was 0.343; in experiment [2] (first compound 0.06325 µM), 0.346; in experiment [2] (first compound 0.2 µM) it was 0.368. Besides, the relative viability in experiment [2] (first compound 0.6325 µM) came out at 0.393; in experiment [2] (first compound 2 µM), 0.324; in experiment [3] (first compound 0.1 µM), 0.313; in experiment [3] (first compound 1 µM) it was 0.379; in experiment [3] (first compound 3.162 µM) it was 0.386; in experiment [4] (first compound 0.1 µM) it was 0.603. Besides, the relative viability in experiment [4] (first compound 1 µM) was found to be 0.742; in experiment [4] (first compound 3.162 µM), 0.813; in experiment [5] (first compound 0.02 µM), 0.826; in experiment [5] (first compound 0.06325 µM), 0.799; in experiment [5] (first compound 0.2 µM), 0.893; in experiment [5] (first compound 0.6325 µM), 0.966. In addition, the relative viability in experiment [5] (first compound 2 µM) amounted to 0.962.

LC-2-ad: the relative viability in experiment [1] (first compound 0.1 µM) stood at 0.997; in experiment [1] (first compound 1 µM), 1.04; in experiment [1] (first compound 3.162 µM), 0.699; in experiment [2] (first compound 0.02 µM), 0.399; in experiment [2] (first compound 0.06325 µM) it was 0.546; in experiment [2] (first compound 0.2 µM), 0.486. Also, the relative viability in experiment [2] (first compound 0.6325 µM) was 0.469; in experiment [2] (first compound 2 µM), 0.42; in experiment [3] (first compound 0.1 µM), 0.508; in experiment [3] (first compound 1 µM), 0.545; in experiment [3] (first compound 3.162 µM), 0.311; in experiment [4] (first compound 0.1 µM), 0.977. Also, the relative viability was determined as 0.953 in experiment [4] (first compound 1 µM); 0.668 in experiment [4] (first compound 3.162 µM); 0.996 in experiment [5] (first compound 0.02 µM); 0.94 in experiment [5] (first compound 0.06325 µM); 0.876 in experiment [5] (first compound 0.2 µM); 0.852 in experiment [5] (first compound 0.6325 µM). Further, the relative viability in experiment [5] (first compound 2 µM) worked out at 0.897.

COR-L 105: the relative viability in experiment [1] (first compound 0.1 µM) is 0.603; in experiment [1] (first compound 1 µM), 0.634; in experiment [1] (first compound 3.162 µM) it was 0.712; in experiment [2] (first compound 0.02 µM), 0.361; in experiment [2] (first compound 0.06325 µM) it was 0.313; in experiment [2] (first compound 0.2 µM) it was 0.303. Also, the relative viability in experiment [2] (first compound 0.6325 µM) was 0.295; in experiment [2] (first compound 2 µM), 0.336; in experiment [3] (first compound 0.1 µM) it was 0.376; in experiment [3] (first compound 1 µM) it was 0.392; in experiment [3] (first compound 3.162 µM), 0.37; in experiment [4] (first compound 0.1 µM), 1.11. Further, the relative viability is 1.03 in experiment [4] (first compound 1 µM); 1 in experiment [4] (first compound 3.162 µM); 0.918 in experiment [5] (first compound 0.02 µM); 0.943 in experiment [5] (first compound 0.06325 µM); 0.98 in experiment [5] (first compound 0.2 µM); 1.02 in experiment [5] (first compound 0.6325 µM). Also, the relative viability in experiment [5] (first compound 2 µM) came out at 1.15.

Turning to NCI-H1355, the relative viability was found to be 0.733 in experiment [1] (first compound 0.1 µM); 0.683 in experiment [1] (first compound 1 µM); 0.553 in experiment [1] (first compound 3.162 µM); 0.558 in experiment [2] (first compound 0.02 µM); 0.657 in experiment [2] (first compound 0.06325 µM); 0.574 in experiment [2] (first compound 0.2 µM). In addition, the relative viability in experiment [2] (first compound 0.6325 µM) worked out at 0.57; in experiment [2] (first compound 2 µM) it was 0.57; in experiment [3] (first compound 0.1 µM) it was 0.491; in experiment [3] (first compound 1 µM), 0.428; in experiment [3] (first compound 3.162 µM), 0.425; in experiment [4] (first compound 0.1 µM) it was 0.946. Besides, the relative viability in experiment [4] (first compound 1 µM) was 1.06; in experiment [4] (first compound 3.162 µM), 0.975; in experiment [5] (first compound 0.02 µM) it was 0.769; in experiment [5] (first compound 0.06325 µM), 0.855; in experiment [5] (first compound 0.2 µM) it was 0.849; in experiment [5] (first compound 0.6325 µM), 0.867. In addition, the relative viability in experiment [5] (first compound 2 µM) was 0.82.
